Values quoted from earlier work in patent US20020155136A1, “MEDICINE CONTAINING YOHIMBINE AND ARGININE FOR TREATING ERECTILE DYSFUNCTION” (priority 1997, published 2002).

Tests used:
[1] = test system: erectile dysfunction; conditions: 2800 mg per day; Zorgniotti and Lizza 1994
[2] = test system: impotence of psychogenic origin

Structure (SMILES)	favourable effect on erectile dysfunction, proportion of cases [1]	side effects observed ([2]; for relatively large doses, The Medical Letter 1995)	improvements, proportion of cases ([2]; impotence of psychogenic origin, published studies, results controversial)
N=C(N)NCCC[C@H](N)C(=O)O [L-arginine]	approximately 40 % of cases		
COC(=O)[C@@H]1[C@H]2C[C@H]3c4[nH]c5ccccc5c4CCN3C[C@@H]2CC[C@@H]1O [yohimbine]		vertigo, anxiety, nervousness, headaches, insomnia and an increase in arterial pressure	35 to 45 % of cases
